Assay results taken from PMC8011931, “Identification, Structure–Activity Relationship, and Biological Characterization of 2,3,4,5-Tetrahydro-1H-pyrido[4,3-b]indoles as a Novel Class of CFTR Potentiators” (Journal of Medicinal Chemistry, 2020).

Target: F508del-CFTR (Homo sapiens, UniProt P13569, DEL508-508)
Assay: HS-YFP-based assay for CFTR activity on F508del-CFTR FRT cells rescued at 32 °C for 24 h
Format: cell-based
Set-up: expressed in transfected cells; key to Emax: fold increase in F508del-CFTR rescue relative to hit 3 (normalized)
Conditions: for EC50: F508del-CFTR FRT cells rescued at 32 °C for 24 h, plus forskolin; for EC50 / Emax (FRT F508del-CFTR): mean ± SD (n = 3–6), n.a.: not active (up to 20 μM); for Emax (FRT F508del-CFTR): normalized for the activity of analogue 3; for Emax: supplementary csv, same data as Tables 1–3
Procedure: The chemical library was screened in duplicate on a Fischer rat thyroid (FRT) cell line, stably coexpressing F508del-CFTR and the halide-sensitive yellow fluorescent protein, HS-YFP.[23],[34],[35] To overcome the F508del trafficking defect, cells were initially incubated for 24 h at 32 °C and then acutely treated (15–30 min) with a single compound (5 μM) in combination with forskolin (10 μM). After stimulation, the F508del-CFTR activity in the plasma membrane was calculated by measuring the rate of fluorescence quenching arising from iodide influx.[34] This activity was compared to that of wells containing forskolin alone (negative control) or forskolin plus VX-770 (1 μM, as a positive control) (Figure 2A). Analysis of screening performance with the Z′ method gave a score of 0.6, which can be considered optimal for this type of assay. The activity scores for each compound were then plotted as an ordered distribution (Figure 2B). All compounds whose average activity calculated from the two rounds of screening was greater than 185% with respect to the negative control (i.e., forskolin alone) were considered as primary hits.
The primary hits were confirmed by testing them at different concentrations, in order to extrapolate the dose–response relationship. First, we focused on the F508del mutant. The compounds were tested in the low micromolar range, in the presence of forskolin (10 μM), on F508del-CFTR FRT cells following rescue of the trafficking defect by low-temperature incubation, as done for the primary screening. The most interesting hits were subsequently tested for their ability to overcome the more severe gating defect of pure class III mutant using FRT cells stably expressing G551D-CFTR (Figure 3B).
The role of the heteroaryl group (A) acylating the position 2 of the tetrahydro-γ-carboline was initially explored by modifying the substituent on the pyrazolyl residue and replacing the pyrazole with other rings, while keeping the 8-methoxy carboline moiety unmodified. The activity of each compound is described in terms of normalized maximal efficacy (Emax), the maximum fold increase in the rescue of F508del-CFTR activity with respect to hit 3, and potency (EC50), the concentration producing half-maximal efficacy.
FRT cells stably expressing mutant F508del-CFTR or G551D-CFTR and the halide-sensitive yellow fluorescent protein (HS-YFP) YFP-H148Q/I152L and CFBE41o-cells stably expressing F508del-CFTR and HS-YFP were generated as previously described.[21],[57] FRT cells were cultured using the Coon’s modification of Ham’s F12 medium, while CFBE41o-cells were cultured in the modified Eagle’s medium. Media were supplemented with 10% fetal calf serum, 2 mM L-glutamine, 100 U/mL of penicillin, and […] of streptomycin. For functional assays of CFTR activity based on the HS-YFP assays, CFBE41o- or FRT cells were plated (50,000 cells/well) on clear-bottom 96-well black microplates (Corning Life Sciences, Acton, MA). The following day, cells were assayed. In the case of FRT cells expressing F508del-CFTR, plates were kept at 32 °C (or treated with correctors at 37 °C where indicated) for an additional 24 h to rescue the mutant trafficking defect, before assays.
Prior assay, cells were washed with phosphate-buffered saline (PBS) containing (in mM) 137 NaCl, 2.7 KCl, 8.1 Na2HPO4, 1.5 KH2PO4, 1 CaCl2, and 0.5 MgCl2. Cells were then incubated for 25 min with 60 μL of PBS plus forskolin (20 μM) and test compounds (at the desired concentration) to stimulate mutant CFTR. Cells were then transferred to microplate readers (FluoStar Optima; BMG Labtech, Offenburg, Germany) for CFTR activity determination. The plate readers were equipped with high-quality excitation (HQ500/20X: 500 ± 10 nm) and emission (HQ535/30M: 535 ± 15 nm) filters for YFP (Chroma Technology). […]

F508del-CFTR, sequence (P13569 with tags, fused parts or gaps DEL508-508): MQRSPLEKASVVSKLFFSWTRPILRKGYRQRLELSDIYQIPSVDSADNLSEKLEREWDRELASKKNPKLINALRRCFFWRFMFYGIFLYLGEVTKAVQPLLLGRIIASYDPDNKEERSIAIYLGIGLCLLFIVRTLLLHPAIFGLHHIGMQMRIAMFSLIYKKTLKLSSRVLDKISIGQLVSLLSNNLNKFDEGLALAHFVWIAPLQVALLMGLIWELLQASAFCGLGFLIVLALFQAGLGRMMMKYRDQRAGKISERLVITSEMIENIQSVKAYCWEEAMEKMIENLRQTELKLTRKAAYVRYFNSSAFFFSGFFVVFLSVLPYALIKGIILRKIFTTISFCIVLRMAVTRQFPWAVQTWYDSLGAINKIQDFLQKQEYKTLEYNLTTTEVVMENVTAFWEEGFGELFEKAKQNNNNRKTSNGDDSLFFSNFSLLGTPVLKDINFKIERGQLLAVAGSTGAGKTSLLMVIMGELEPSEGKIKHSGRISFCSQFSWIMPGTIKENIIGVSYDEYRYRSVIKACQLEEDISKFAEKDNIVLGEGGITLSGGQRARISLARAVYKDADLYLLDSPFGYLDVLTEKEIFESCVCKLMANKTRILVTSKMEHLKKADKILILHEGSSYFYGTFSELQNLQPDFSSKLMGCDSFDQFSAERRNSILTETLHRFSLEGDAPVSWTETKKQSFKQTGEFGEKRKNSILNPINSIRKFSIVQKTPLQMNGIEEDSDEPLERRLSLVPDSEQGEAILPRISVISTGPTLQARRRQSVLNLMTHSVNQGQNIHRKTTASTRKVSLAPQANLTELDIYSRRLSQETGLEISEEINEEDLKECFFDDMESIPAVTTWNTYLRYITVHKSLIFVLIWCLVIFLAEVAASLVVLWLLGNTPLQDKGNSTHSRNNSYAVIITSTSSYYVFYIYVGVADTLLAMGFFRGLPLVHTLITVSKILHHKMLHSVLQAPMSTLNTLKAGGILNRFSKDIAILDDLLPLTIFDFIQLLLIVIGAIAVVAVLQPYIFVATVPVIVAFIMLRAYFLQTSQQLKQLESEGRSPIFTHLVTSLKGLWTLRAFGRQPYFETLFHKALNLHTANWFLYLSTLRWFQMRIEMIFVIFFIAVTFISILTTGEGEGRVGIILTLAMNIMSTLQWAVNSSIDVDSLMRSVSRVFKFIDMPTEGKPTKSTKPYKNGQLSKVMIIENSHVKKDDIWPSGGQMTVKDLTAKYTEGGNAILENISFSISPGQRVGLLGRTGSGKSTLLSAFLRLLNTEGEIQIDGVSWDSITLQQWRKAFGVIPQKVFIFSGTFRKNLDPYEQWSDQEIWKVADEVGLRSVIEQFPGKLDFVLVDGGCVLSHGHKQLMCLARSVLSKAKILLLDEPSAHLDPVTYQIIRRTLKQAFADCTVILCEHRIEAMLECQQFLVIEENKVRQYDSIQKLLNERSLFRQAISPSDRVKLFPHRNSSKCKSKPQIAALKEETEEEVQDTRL

EC50 [µM]	Emax (FRT F508del-CFTR)	Emax	fold drop in potency with respect to 20 (EC50, F508del-CFTR FRT cells) [fold]	fold decrease (drop) in potency with respect to 30 (EC50, F508del-CFTR FRT cells) [fold]	SMILES	activity on F508del-CFTR FRT cells (in words)
0.16 ± 0.03	0.89 ± 0.03	0.89 ± 0.03			O=C(c1cc(C(F)(F)F)[nH]n1)N1CCc2[nH]c3ccc(OC(F)(F)F)cc3c2C1 [Compound 22, (8-(Trifluoromethoxy)-1,3,4,5-tetrahydro-2H-pyrido[4,3-b]indol-2-yl)-(5-(trifluoromethyl)-1H-pyrazol-3-yl)methanone]	
0.05 ± 0.01		0.9 ± 0.3			Cc1ccc(F)c2[nH]c3c(c12)C(C)N(C(=O)c1cc(C(F)(F)F)[nH]n1)CC3 (single isomer, unassigned) [Compound 42, (S)- or (R)-(6-Fluoro-1,9-dimethyl-1,3,4,5-tetrahydro-2H-pyrido[4,3-b]indol-2-yl)-(5-(trifluoromethyl)-1H-pyrazol-3-yl)methanone]	
1.91 ± 0.26	0.79 ± 0.13	0.79 ± 0.13			Cc1ccc(F)c2[nH]c3c(c12)CN(C(=O)c1cc(C(F)(F)F)[nH]n1)C(C)(C)C3 [Compound 34, (6-Fluoro-3,3,9-trimethyl-1,3,4,5-tetrahydro-2H-pyrido[4,3-b]indol-2-yl)-(5-(trifluoromethyl)-1H-pyrazol-3-yl)methanone]	
0.03 ± 0.02		1.0 ± 0.3			Cc1ccc(F)c2[nH]c3c(c12)C(C)N(C(=O)c1cc(C(F)(F)F)[nH]n1)CC3 (racemic) [Compound 32, (±)-(6-Fluoro-1,9-dimethyl-1,3,4,5-tetrahydro-2H-pyrido[4,3-b]indol-2-yl)-(5-(trifluoromethyl)-1H-pyrazol-3-yl)methanone]	
0.57 ± 0.14		0.94 ± 0.13	6		O=C(c1cc(C(F)(F)F)[nH]n1)N1CCc2[nH]c3c(F)cc(C(F)(F)F)cc3c2C1 [Compound 28, (6-Fluoro-8-trifluoromethyl-1,3,4,5-tetrahydro-2H-pyrido[4,3-b]indol-2-yl)-(5-(trifluoromethyl)-1H-pyrazol-3-yl)methanone]	
2.3 ± 0.3		0.93 ± 0.16		38	Cc1ccc(F)c2[nH]c3c(c12)CCN(C(=O)c1cc(C(F)(F)F)[nH]n1)CC3 [Compound 38, (7-Fluoro-10-methyl-1,4,5,6-tetrahydroazepino[4,5-b]indol-3(2H)-yl)-(5-(trifluoromethyl)-1H-pyrazol-3-yl)methanone]	
0.44 ± 0.06		0.95 ± 0.04			O=C(c1cc(C(F)(F)F)[nH]n1)N1CCc2[nH]c3ccc(C(F)(F)F)cc3c2C1 [Compound 21, (8-(Trifluoromethyl)-1,3,4,5-tetrahydro-2H-pyrido[4,3-b]indol-2-yl)-(5-(trifluoromethyl)-1H-pyrazol-3-yl)methanone]	
1.1 ± 0.2	1.31 ± 0.18	1.31 ± 0.18			Cc1ccc(F)c2[nH]c3c(c12)CN(C(=O)c1cc(C(F)(F)F)[nH]n1)[C@@H](C)C3 [Compound 40, (S)-(6-Fluoro-3,9-dimethyl-1,3,4,5-tetrahydro-2H-pyrido[4,3-b]indol-2-yl)-(5-(trifluoromethyl)-1H-pyrazol-3-yl)methanone]	
1.9 ± 0.2		0.75 ± 0.11			N#Cc1ccc2[nH]c3c(c2c1)CN(C(=O)c1cc(C(F)(F)F)[nH]n1)CC3 [Compound 23, 2-(5-(Trifluoromethyl)-1H-pyrazole-3-carbonyl)-2,3,4,5-tetrahydro-1H-pyrido[4,3-b]indole-8-carbonitrile]	

Continued, compound first:

SMILES	EC50 [µM]	Emax (FRT F508del-CFTR)	Emax	fold drop in potency with respect to 20 (EC50, F508del-CFTR FRT cells) [fold]	fold decrease (drop) in potency with respect to 30 (EC50, F508del-CFTR FRT cells) [fold]	activity on F508del-CFTR FRT cells (in words)
COc1ccc2[nH]c3c(c2c1)CN(C(=O)c1ccc(Br)o1)CC3 [Compound 9, (8-Methoxy-1,3,4,5-tetrahydro-2H-pyrido[4,3-b]indol-2-yl)-(5-bromofuran-2-yl)methanone]	3.7 ± 1.1		0.94 ± 0.11			
Cc1ccc(F)c2[nH]c3c(c12)[C@H]1CC[C@@H](C3)N1C(=O)c1cc(C(F)(F)F)[nH]n1 (single isomer, unassigned) [Compound 36, (R)- or (S)-(4-Fluoro-1-methyl-5,6,7,8,9,10-hexahydro-7,10-epiminocyclohepta[b]indol-11-yl)(5-(trifluoromethyl)-1H-pyrazol-3-yl)methanone]						completely inactive
Cc1cccc2c3c([nH]c12)CCN(C(=O)c1cc(C(F)(F)F)[nH]n1)C3 [Compound 17, (6-Methyl-1,3,4,5-tetrahydro-2H-pyrido[4,3-b]indol-2-yl)-(5-(trifluoromethyl)-1H-pyrazol-3-yl)methanone]	1.14 ± 0.13		1.0 ± 0.08			
O=C(c1cc(C(F)(F)F)[nH]n1)N1CCc2[nH]c3ccccc3c2C1 [Compound 13, (1,3,4,5-Tetrahydro-2H-pyrido[4,3-b]indol-2-yl)-(5-(trifluoromethyl)-1H-pyrazol-3-yl)methanone]	0.23 ± 0.05		1.05 ± 0.17			
Cc1ccc(F)c2[nH]c3c(c12)C1CCC(C3)N1C(=O)c1cc(C(F)(F)F)[nH]n1 (single isomer, unassigned) [Compound 37, (S)- or (R)-(4-Fluoro-1-methyl-5,6,7,8,9,10-hexahydro-7,10-epiminocyclohepta[b]indol-11-yl)(5-(trifluoromethyl)-1H-pyrazol-3-yl)methanone]	0.54 ± 0.04		0.95 ± 0.01			retained some activity
COc1ccc2[nH]c3c(c2c1)CN(C(=O)c1cc2ccc(N(C)C)cc2[nH]1)CC3 [Compound 10, (8-Methoxy-1,3,4,5-tetrahydro-2H-pyrido[4,3-b]indol-2-yl)-(6-(dimethylamino)-1H-indol-2-yl)methanone]	0.15 ± 0.02	0.91 ± 0.12	0.91 ± 0.12			
O=C(c1cnn(-c2ccccc2)c1)N1CCc2[nH]c3ccccc3c2C1 [Compound 2, (1-Phenyl-1H-pyrazol-4-yl)-(1,3,4,5-tetrahydro-2H-pyrido[4,3-b]indol-2-yl)methanone]	4.1 ± 1.3		0.79 ± 0.13			
Cc1ccc2[nH]c3c(c2c1)CN(C(=O)c1cc(C(F)(F)F)[nH]n1)CC3 [Compound 14, (8-Methyl-1,3,4,5-tetrahydro-2H-pyrido[4,3-b]indol-2-yl)-(5-(trifluoromethyl)-1H-pyrazol-3-yl)methanone]	0.27 ± 0.09		0.95 ± 0.11			
COc1ccc2[nH]c3c(c2c1)CN(C(=O)c1cc(-c2ccccc2)[nH]n1)CC3 [Compound 7, (8-Methoxy-1,3,4,5-tetrahydro-2H-pyrido[4,3-b]indol-2-yl)-(5-phenyl-1H-pyrazol-3-yl)methanone]	0.82 ± 0.17	0.84 ± 0.23	0.84 ± 0.23			
COc1ccc2[nH]c3c(c2c1)CN(C(=O)c1cc(C)[nH]n1)CC3 [Compound 5, (8-Methoxy-1,3,4,5-tetrahydro-2H-pyrido[4,3-b]indol-2-yl)-(5-methyl-1H-pyrazol-3-yl)methanone]	60 ± 4	0.59 ± 0.11	0.59 ± 0.11			
O=C(c1cc(C(F)(F)F)[nH]n1)N1CCc2[nH]c3ccc(F)cc3c2C1 [Compound 19, (8-Fluoro-1,3,4,5-tetrahydro-2H-pyrido[4,3-b]indol-2-yl)(5-(trifluoromethyl)-1H-pyrazol-3-yl)methanone]	0.48 ± 0.05		0.97 ± 0.11			
